This is an account of results in ChEMBL document CHEMBL5584214, “Design of MERS-CoV entry inhibitory short peptides based on helix-stabilizing strategies” (Bioorg Med Chem Lett, 2024).

Broadly, the AUC(0-t) is the area under the concentration-time curve up to a stated or last time point. Higher therefore signals high exposure. Usually MRT last stands for the average time that molecules of a dose stay in the body. The term half-life denotes the time in which the quantity being followed falls by half. Low readings indicate rapid decline, high ones slow decline. As usually defined, the clearance is the volume of plasma or blood freed of the substance per unit of time. Lower therefore signals inefficient removal. A word on the Cmax: it is the highest concentration seen after dosing. The Vd is the apparent volume that relates the amount in the body to the concentration in plasma or blood. A higher Vd goes with wide distribution into tissue. As usually defined, the solubility is how much of the substance goes into solution per volume. A higher solubility goes with much dissolved substance. As a reminder, the EC50 is the concentration needed to bring the measured effect to its halfway point. Usually CC50 stands for the concentration at which the toxic effect on the cells reaches its halfway point.

Values after ≈ are worked out from the molar mass of the structure shown. Active and inactive are the calls of the source. The calls are words filed in the database; no cut-off is given here. Non-standard residues stand in square brackets, D forms with d. Residues, ends and D or L forms follow the SMILES beside them. *: point of attachment. Palmitoyl = CCCCCCCCCCCCCCCC(=O)*; AEEA = NCCOCCOCC(=O)O; Aib = CC(C)(N)C(=O)O

Series [1] is described as follows: AUC (0 to t) in Sprague-Dawley rat at 4 mg/kg, iv administered as single dose and measured upto 36 hrs by LC-MS/MS analysis. Format: ADME, organism-based. Particulars: in vivo.
A short description of series [2]: MRT (0 to t) in Sprague-Dawley rat at 4 mg/kg, iv administered as single dose and measured upto 36 hrs by LC-MS/MS analysis. Format: ADME, organism-based. Particulars: in vivo.
Series [3] can be described thus: Half life in Sprague-Dawley rat at 4 mg/kg, iv administered as single dose and measured upto 36 hrs by LC-MS/MS analysis. Conditions: in vivo. In kind it is ADME, organism-based.
The nature of series [4]: Clearance in Sprague-Dawley rat at 4 mg/kg, iv administered as single dose and measured upto 36 hrs by LC-MS/MS analysis. Format: ADME, organism-based. Conditions: in vivo.
Series [5] is described as follows: Cmax in Sprague-Dawley rat at 4 mg/kg, iv administered as single dose and measured upto 36 hrs by LC-MS/MS analysis. Format: ADME, organism-based. Conditions: in vivo.
A short description of series [6]: Volume of distribution in Sprague-Dawley rat at 4 mg/kg, iv administered as single dose and measured upto 36 hrs by LC-MS/MS analysis. Format: ADME, organism-based. Particulars: in vivo.
The nature of series [7]: Water solubility of compound in dd-H2O. In kind it is physicochemical.
Series [8] is described as follows: Water solubility of compound in PBS at pH 7.4. In kind it is physicochemical.
The nature of series [9]: Inhibition of MERS-CoV Spike glycoprotein mediated cell-cell fusion. On the set-up: species or system Middle East respiratory syndrome-related coronavirus.
For series [10], the system named is Middle East respiratory syndrome-related coronavirus. The series is described as follows: Antiviral activity against MERS CoV pseudovirus infected in Huh-7 cells assessed as inhibition of viral infection. In kind it is functional, organism-based.
Series [11] in a line: Cytotoxicity against human Huh-7 cells infected with MERS CoV pseudovirus assessed as reduction in cell viability. In kind it is toxicity, cell-based.
The nature of series [12]: Selectivity index, ratio of CC50 for human Huh-7 cells infected with MERS CoV pseudovirus to EC50 for MERS CoV pseudovirus infected in Huh-7 cells. Format: toxicity, cell-based. Conditions: read-out: Ratio CC50/EC50.
In series [13] the test system is Middle East respiratory syndrome-related coronavirus. The series is described as follows: Inhibition of MERS CoV spike glycoprotein HR1/HR2 fusion assessed as disruption of fusion-active core formation by measuring reduction in six-helix bundle density at 100 uM by native-PAGE analysis.
Series [14] has the same test system. The series can be described thus: Inhibition of MERS CoV spike glycoprotein HR1/HR2 fusion assessed as disruption of fusion-active core formation by measuring increase in HR2P density at 100 uM by native-PAGE analysis.

`CCCCCCCCCCCCCCCC(=O)NCCCC[C@H](NC(=O)COCCOCCNC(=O)[C@H](Cc1ccc(O)cc1)NC(=O)[C@H](CO)NC(=O)[C@H](CCC(=O)O)NC(=O)[C@H](CC(N)=O)NC(=O)[C@H](CC(C)C)NC(=O)[C@H](CCCCN)NC(=O)[C@H](CCCCN)NC(=O)[C@@H](NC(=O)[C@@H](NC(=O)[C@H](CCC(=O)O)NC(=O)[C@H](CCC(N)=O)NC(=O)[C@H](CC(C)C)NC(=O)[C@H](CO)NC(=O)[C@H](CC(C)C)NC(=O)[C@H](CCSC)NC(=O)C(C)(C)NC(=O)[C@H](Cc1ccc(O)cc1)NC(=O)[C@@H](NC(=O)[C@H](CC(C)C)NC(=O)C(C)(C)NC(=O)[C@H](CC(C)C)NC(C)=O)[C@@H](C)O)C(C)C)C(C)C)C(N)=O` (Ac-L[Aib]LTY[Aib]MLSLQEVVKKLNESY[AEEA]K(Palmitoyl)-NH2) returned an AUC(0-t) at 36 h in series [1] of 59800 ng·h/mL. The compound further gave an MRT last at 36 h in series [2] of 9.1 h. Moreover, the half-life in [3] was 7.27 h. The clearance in [4] was 1.08 mL/min/kg. Further, the peak level in series [5] (Cmax) was 5000 ng/mL. The same compound returned a Vd in [6] of 0.683 L/kg. The solubility was determined as 1.17 µM (≈ 3.5 µg/mL) in series [7] and 5.46 µM (≈ 16.4 µg/mL) in [8]. For the same compound, the EC50 in series [9] worked out at 0.245 µM; in [10], 5.22 µM. Also, the CC50 in [11] was above 200 µM. In addition, the selectivity ratio in [12] was above 38.3. For the same compound, the inhibition result in series [13] and in series [14] was “Active” throughout.

As to `CC[C@H](C)[C@H](NC(=O)[C@H](Cc1ccc(O)cc1)NC(=O)[C@H](CO)NC(=O)[C@H](CCC(=O)O)NC(=O)[C@H](CCC(=O)O)NC(=O)[C@H](CC(C)C)NC(=O)[C@H](CCCCN)NC(=O)[C@H](CCCCN)NC(=O)[C@@H](NC(=O)[C@@H](NC(=O)[C@H](CCC(=O)O)NC(=O)[C@H](CCC(=O)O)NC(=O)[C@H](CC(C)C)NC(=O)[C@H](CCCCN)NC(=O)[C@H](CCCCN)NC(=O)[C@H](CCSC)NC(=O)[C@H](CCC(=O)O)NC(=O)[C@H](Cc1ccc(O)cc1)NC(=O)[C@H](CCC(=O)O)NC(=O)[C@H](CC(C)C)NC(=O)[C@H](CC(=O)O)NC(=O)[C@H](CC(C)C)NC(=O)[C@H](CC(C)C)NC(=O)[C@@H](NC(=O)[C@@H](NC(=O)[C@H](CC(N)=O)NC(=O)[C@@H](NC(=O)[C@H](CCC(N)=O)NC(=O)[C@@H](NC(=O)[C@H](CC(C)C)NC(=O)[C@@H](N)CO)[C@@H](C)O)[C@@H](C)CC)[C@@H](C)O)[C@@H](C)O)C(C)C)C(C)C)C(=O)N[C@@H](CC(=O)O)C(=O)N[C@@H](CC(C)C)C(=O)N[C@@H](CCCCN)C(=O)N[C@@H](CCC(=O)O)C(=O)N[C@@H](CC(C)C)C(=O)O`, the exposure AUC(0-t) at 36 h in series [1] worked out at 6450 ng·h/mL. Moreover, the MRT last at 36 h in series [2] was 0.28 h. Besides, the half-life in series [3] was 0.35 h. Besides, the clearance in series [4] was 10.2 mL/min/kg. In series [5], this compound showed a Cmax of 30400 ng/mL. Further, the Vd in series [6] came to 0.307 L/kg. Further, a half-maximal effect in series [9] (EC50) was put at 0.75 µM.

In [9], `CSCC[C@H](NC(=O)[C@H](CCC(=O)O)NC(=O)[C@H](Cc1ccc(O)cc1)NC(=O)[C@@H](NC(=O)[C@H](CC(C)C)NC(=O)[C@H](CC(=O)O)NC(=O)[C@H](CC(C)C)NC(C)=O)[C@@H](C)O)C(=O)N[C@@H](CC(C)C)C(=O)N[C@@H](CO)C(=O)N[C@@H](CC(C)C)C(=O)N[C@@H](CCC(N)=O)C(=O)N[C@@H](CCC(N)=O)C(=O)N[C@H](C(=O)N[C@H](C(=O)N[C@@H](CCCCN)C(=O)N[C@@H](C)C(=O)N[C@@H](CC(C)C)C(=O)N[C@@H](CC(N)=O)C(=O)N[C@@H](CCC(=O)O)C(=O)N[C@@H](C)C(=O)N[C@@H](Cc1ccc(O)cc1)C(N)=O)C(C)C)C(C)C` yielded an EC50 of 6.67 µM.

The compound `CSCC[C@H](NC(=O)[C@H](CCC(=O)O)NC(=O)C(C)(C)NC(=O)[C@@H](NC(=O)[C@H](CC(C)C)NC(=O)[C@H](CC(=O)O)NC(=O)[C@H](CC(C)C)NC(C)=O)[C@@H](C)O)C(=O)N[C@@H](CC(C)C)C(=O)NC(C)(C)C(=O)N[C@@H](CC(C)C)C(=O)N[C@@H](CCC(N)=O)C(=O)N[C@@H](CCC(N)=O)C(=O)N[C@H](C(=O)N[C@H](C(=O)N[C@@H](CCCCN)C(=O)N[C@@H](C)C(=O)N[C@@H](CC(C)C)C(=O)N[C@@H](CC(N)=O)C(=O)N[C@@H](CCC(=O)O)C(=O)N[C@@H](CO)C(=O)N[C@@H](Cc1ccc(O)cc1)C(N)=O)C(C)C)C(C)C` displayed a concentration giving a half-maximal response (EC50) in series [9] above 50 µM.
